Experimental findings from ChEMBL document CHEMBL3751851, “Antileukemic activity of lignans and phenylpropanoids of Cinnamomum parthenoxylon” (Bioorg Med Chem Lett, 2016) are described below.

Active and inactive are the calls of the source. The calls are words filed in the database; no cut-off is given here.

A short description of assay [1]: Cytotoxicity against human HL60 cells after 48 hrs by CCK8 assay. The settings on record: HL-60, 48 h. Type of assay: functional, cell-based. In general terms: Formazan colour is commonly taken as a measure of viable cells.
For assay [2], the system named is HL-60. Nature of the assay: Induction of apoptotic morphological changes in human HL60 cells at 50 uM after 48 hrs by Hoechst 33342 staining. The format is functional, cell-based.
Assay [3] relates to U-937. The experiment in a line: Induction of apoptotic morphological changes in human U937 cells at 50 uM after 48 hrs by Hoechst 33342 staining. The format is functional, cell-based.
A short description of assay [4]: Cytotoxicity against human U937 cells after 48 hrs by CCK8 assay. The note with it: U-937, 48 h. The format is functional, cell-based.
The subject of assay [5] is Huh-7. Nature of the assay: Induction of apoptosis in human HuH7 cells assessed as increase of casapase-3 activity after 1 hr by DEVD-pNA cleavage assay relative to control. Type of assay: functional.

In the case of `OC1OC[C@H](Cc2ccc3c(c2)OCO3)[C@H]1Cc1ccc2c(c1)OCO2` (stereo partly specified), the IC50 in assay [1] came to 38.2 µM; in assay [4] it was 15.7 µM. The result in assay [2] and in assay [3] was Active.

For `c1cc2c(cc1C[C@H]1COC[C@@H]1Cc1ccc3c(c1)OCO3)OCO2`, the IC50 was 51.1 µM in assay [1] and 40.2 µM in assay [4]. The outcome in assay [3] was Active.

Take `O=C1OC[C@H](Cc2ccc3c(c2)OCO3)[C@H]1Cc1ccc2c(c1)OCO2` [HINOKININ]: the IC50 in assay [1] came to 31.3 µM; in assay [4] it was 10.4 µM. Besides, the outcome in assay [2] and in assay [3] was Active. For the same molecule, the “fold change (FC)” value in assay [5] amounted to 2.

`C=CCc1ccc2c(c1)OCO2` [SAFROLE]: the IC50 in assay [1] amounted to 53.2 µM; in assay [4], 52.3 µM.

As for `OCC(O)Cc1ccc2c(c1)OCO2` (stereo unspecified) [SAFROLGLYCOL], the IC50 is 60 µM in assay [1] and 50.8 µM in assay [4].

For orientation: IC50 means the concentration that inhibits the measured activity by half.
